Reference: ChEMBL document CHEMBL3988442, “University of Dundee, Small-Polar-MMV Screening Library” (2021)
Several values for one entry are separate records, joined by “and”; a condition that tells them apart may be missing. Equal values may be shown once.

How the values were obtained:
[1] = target: Sialic acid-binding Ig-like lectin 9 (Homo sapiens, UniProt Q9Y336); assay: Hs-Siglec9 ALPHAscreen SOP 20170721
[2] = target: T1, Coenzyme A biosynthesis bifunctional protein CoaBC (Mycobacterium tuberculosis (strain ATCC 25618 / H37Rv), UniProt P9WNZ1); assay: Biomol Green assay for MtCoaBC inhibitor, OD650 read; type: functional
T1 sequence (P9WNZ1 whole entry): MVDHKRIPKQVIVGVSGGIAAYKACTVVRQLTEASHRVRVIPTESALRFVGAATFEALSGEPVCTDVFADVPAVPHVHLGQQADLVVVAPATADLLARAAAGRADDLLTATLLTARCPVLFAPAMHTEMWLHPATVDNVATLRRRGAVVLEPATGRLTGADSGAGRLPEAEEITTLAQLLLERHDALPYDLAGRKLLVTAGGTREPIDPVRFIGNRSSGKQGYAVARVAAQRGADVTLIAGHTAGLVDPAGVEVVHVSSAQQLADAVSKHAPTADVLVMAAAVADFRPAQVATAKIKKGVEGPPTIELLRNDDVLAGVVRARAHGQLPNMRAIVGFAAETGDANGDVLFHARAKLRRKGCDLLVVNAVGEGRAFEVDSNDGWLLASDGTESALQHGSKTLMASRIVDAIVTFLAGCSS

[3] = tested on: Mycobacterium tuberculosis; assay: Cornell M. t heat shock assay; type: functional, organism-based
[4] = tested on: Wolbachia pipientis; assay: Anti-Wolbachia Cell-Based Screen; type: functional

Sialic acid-binding Ig-like lectin 9, sequence (Q9Y336 whole entry): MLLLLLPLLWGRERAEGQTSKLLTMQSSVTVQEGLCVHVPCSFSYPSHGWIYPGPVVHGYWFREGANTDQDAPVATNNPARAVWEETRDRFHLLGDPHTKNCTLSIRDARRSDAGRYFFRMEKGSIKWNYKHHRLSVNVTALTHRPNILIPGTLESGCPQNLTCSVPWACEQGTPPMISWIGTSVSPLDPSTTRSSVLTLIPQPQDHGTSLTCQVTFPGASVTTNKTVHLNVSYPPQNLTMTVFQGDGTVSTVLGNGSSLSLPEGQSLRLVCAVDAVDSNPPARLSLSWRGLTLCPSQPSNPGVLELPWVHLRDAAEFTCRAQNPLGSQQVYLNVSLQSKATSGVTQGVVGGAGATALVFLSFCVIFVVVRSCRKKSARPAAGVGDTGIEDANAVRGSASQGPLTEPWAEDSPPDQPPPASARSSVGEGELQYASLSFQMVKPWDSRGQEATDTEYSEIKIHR

With CC(C)CCN1CCC2(CC1)NCc1ccccc1NC2=O the IC50 [1] was over 30.2 µM.
In the case of Cc1ccsc1C(=O)N1CCC(Nc2cccnc2)CC1, the IC50 [1] is reported as 14.5 µM and > 30.2 µM.
CCOC(=O)[C@H]1[C@@H](O)C(=O)N(C)C12CCN(C(=O)OCC)CC2 showed an IC50 [1] of over 30.2 µM.
In the case of Cc1cnc(Nc2cccc(C3CCCN3Cc3cn(C)nc3C)n2)s1 (stereo unspecified), the IC50 [2] is reported as over 30.2 µM, the pIC50 [3] is reported as 5.045 and 4.742 and the pIC50 [4] is reported as 5.174. It also gave an IC50 ([4]; Wolbachia pipientis) of 5.37 µM.
With O=C(NCCc1nncn1C1CC1)C1(Cc2ccccc2)CCC1 the IC50 [1] was over 30.2 µM.
Molecule Cc1cc(S(=O)(=O)NC(C)(C)CN)c(F)cc1F has an IC50 [1] of over 30.2 µM.
Work on CC(C)NC(=O)C1CCN(c2nc3nc[nH]c(=O)c3s2)CC1 yielded an IC50 [1] of over 30.2 µM.
Molecule CN(C)CC(=O)N1CCC2(CC1)COc1ccccc1S(=O)(=O)N(C)C2 has an IC50 [1] of over 30.2 µM.
CN1CC2(CCN(C(=O)C3CCC3)CC2)COc2ccccc2S1(=O)=O showed an IC50 [1] of over 30.2 µM.
In the case of CCOCC1CN(Cc2ccsc2)Cc2cnn(C)c21 (stereo unspecified), the IC50 [1] is reported as over 30.2 µM.
CNc1ncc(CN(C)C(=O)c2cccc(-n3cccn3)c2)cn1 was tested, and the IC50 [1] was over 30.2 µM.
Molecule c1cnc(N2CCC3(CCN(CC4CCCC4)CC3)C2)nc1 has an IC50 [1] of over 30.2 µM.
Cc1ccccc1CN1CCCC1c1cccc(Nc2nccs2)n1 (stereo unspecified) gave an IC50 [2] of over 30.2 µM, a pIC50 [3] of 5.632 and an IC50 ([3]; Mycobacterium tuberculosis) of 1.93 µM.
For CCc1nc(C2CCCN(c3ncc(Br)cn3)C2)no1 (stereo unspecified), the IC50 [1] was over 30.2 µM.
CCn1ncc2c1C(COC)CN(Cc1cccnc1)C2 (stereo unspecified) was tested, and the IC50 [1] was over 30.2 µM.
With O=C(C1=CCCC1)N1CCO[C@H]2[C@@H](Oc3ccccn3)CC[C@@H]21 the IC50 [1] was over 30.2 µM.
For CCOC(=O)[C@H]1[C@@H](O)C(=O)N(C)C12CCN(C(=O)OC)CC2, the IC50 [1] was over 30.2 µM.
Molecule Cc1ccnc(N2CCCC(c3nncn3C3CC3)C2)n1 (stereo unspecified) has an IC50 [1] of over 30.2 µM.
CCC(=O)NCC(=O)NCc1cc(Br)ccc1OC(F)F was tested, and the IC50 [1] was over 30.2 µM.
Molecule COCc1cc(N2CCN(C3CCCCC3)CC2)n2nccc2n1 has an IC50 [1] of over 30.2 µM.
In the case of CCn1ncc2c1C(COC)CN(Cc1cnn(C)c1)C2 (stereo unspecified), the IC50 [1] is reported as over 30.2 µM.
With CN(C)C(=O)COC[C@]12COC[C@H]1CN(CCc1ccccc1)C2 the IC50 [1] was over 30.2 µM.
For CCn1ncc2c1C(COC)CN(Cc1nccs1)C2 (stereo unspecified), the IC50 [1] was over 30.2 µM.
NC(=O)c1csc(N2C[C@@H](CN3CCOCC3)[C@@H](CO)C2)n1 was tested, and the IC50 [1] was over 30.2 µM.
COCCC1(C(=O)NCCc2nncn2C2CC2)CCC1 gave an IC50 [1] of over 30.2 µM.
Cc1cc(S(=O)(=O)NCC(C)(O)CN(C)C)c(F)cc1F (stereo unspecified) showed an IC50 [1] of over 30.2 µM.
Molecule CCn1ncc2c1C(COC)CN(Cc1ccsc1)C2 (stereo unspecified) has an IC50 [1] of over 30.2 µM.
Cc1cc(S(=O)(=O)N(CCO)C2CC2)ccc1F gave an IC50 [1] of over 30.2 µM.
Cc1cc(CN2C[C@@H]3COC[C@]3(COCC(=O)N(C)C)C2)no1 was tested, and the IC50 [1] was over 30.2 µM.
Molecule CC(C)n1cnnc1C1CCCN(S(=O)(=O)CC2CCCC2)C1 (stereo unspecified) has an IC50 [1] of over 30.2 µM.
O=C(N1CCCC1)N1CCO[C@H]2[C@@H](Oc3ccccn3)CC[C@@H]21 was tested, and the IC50 [1] was over 30.2 µM.
